Assay results from ChEMBL document CHEMBL3733935, “Pyrazolylbenzothiazole derivatives and their use as therapeutic agents” (2013).
Calls of active or inactive are those of the source.

Assays:
Assay type in all cases: functional, cell-based
[1] = species on record: Mus musculus; experiment: Cytoprotective activity against PAN-induced toxicity in mouse K5P5 cells assessed as increase in cell size at 2.5 to 25 uM after 48 to 72 hrs by crystal violet staining assay
[2] = species on record: Mus musculus; experiment: Cytoprotective activity against PAN-induced toxicity in mouse K5P5 cells assessed as increase in cell spreading at 2.5 to 25 uM after 48 to 72 hrs by crystal violet staining assay
[3] = species on record: Mus musculus; experiment: Cytoprotective activity against PAN-induced toxicity in mouse K5P5 cells assessed as increase in overall cell number at 2.5 to 25 uM after 48 to 72 hrs by crystal violet staining assay

Measured: Activity

Cc1[nH]nc(N)c1-c1nc2cc(F)c(S(N)(=O)=O)cc2s1
active: [1] | [2] | [3]

CNS(=O)(=O)c1ccc2nc(-c3c(N)n[nH]c3C)sc2c1
active: [1] | [2] | [3]

Cc1[nH]nc(N)c1-c1nc2ccc(CN(C)C)cc2s1
active: [1] | [2] | [3]

Cc1[nH]nc(N)c1-c1nc2cc(F)c(S(=O)(=O)NCCO)cc2s1
active: [1] | [2] | [3]

COc1cc2sc(-c3c(-c4ccco4)n[nH]c3N)nc2cc1F
active: [1] | [2] | [3]
